Assay results taken from patent US4347252A, “Rodenticidal 1-(3,5-bistrifluoromethylphenyl)-3-(4-t-butylpiperidino)prop-1-yne” (priority 1980, dated 1982).

How the values were obtained:
mice (laboratory strain) = experiment: Acute Oral Toxicity in Mice (Laboratory Strain); type: in vivo; settings: for LD50 (acute oral): aqueous suspension; for Observations: signs of poisoning: prior to death / after dosing
Experimental: Acute Oral Toxicity in Mice (Laboratory Strain)
Groups of mice were dosed orally with graded doses of the test compound in aqueous suspension and observed until there had been no deaths for at least three days. The acute oral LD50, that is to say the dose in mg/kg animal body weight necessary to kill 50% of the mice, was determined from the numbers of animals for each dose which died during the observation period by reference to published tables.

[1] = system: Warfarin-resistant rats (Rattus norvegicus); experiment: Laboratory Feeding Tests on Wild Rodents: rats; type: in vivo; settings: 0.1% by weight in bait
From the text: (§1) Laboratory Feeding Tests on Wild Rodents
(§2) Warfarin-resistant rats (Rattus norvegicus) and mice (Mus musculus) from wild populations were fed, in the laboratory, on a bait consisting of coarse oatmeal (90%), wholemeal flour (5%) and corn oil (5%). After feeding for four days on this bait, it was replaced by a treated bait of the same composition, in which 0.1% by weight of the test compound 1-(3,5-bistrifluoromethylphenyl)-3-(4-tert-butylpiperidino)prop-1-yne hydrochloride had been incorporated.

[2] = system: Warfarin-resistant mice (Mus musculus); experiment: Laboratory Feeding Tests on Wild Rodents: mice; type: in vivo; settings: 0.1% by weight in bait
From the text: as §1, §2

mice (Mus musculus) [3] = experiment: Laboratory Feeding Tests on Mice in Pens, Test 3(a), poisoned bait alone; type: in vivo; settings: 0.1% by weight in bait
Experimental: (§3) Laboratory Feeding Tests on Mice in Pens
(§4) A bait comprising oatmeal, wholemeal flour and corn oil (plain bait) and a bait of similar composition but incorporating 0.1% by weight of the test compound used in Test 2 hereinbefore described (poisoned bait) were prepared and used in the following tests on mice (Mus musculus) housed in pens.
The poisoned bait alone was offered to 4 male and 4 female mice.

mice (Mus musculus) [4] = experiment: Laboratory Feeding Tests on Mice in Pens, Test 3(b), choice of poisoned and plain bait; type: in vivo
Experimental: as §3, §4
A choice of poisoned and plain bait was offered to groups of mice.

[5] = system: Wild Rats (Rattus norvegicus); experiment: Laboratory Simulated Field Test on Wild Rats in confinement; type: in vivo; settings: for Total bait eaten: poisoned + plain
From the text: Laboratory Simulated Field Test on Wild Rats (Rattus norvegicus) in confinement
One male and nine female rats were given the choice of two feeding points, at each of which the animals were offered a bait consisting of medium oatmeal (95%) and wholemeal flour (5%) (plain bait). After a period of six days during which the plain bait was offered at both feeding points, the plain bait was replaced at one of the feeding points by a bait of the same composition in which 0.1% by weight of the test compound used in Test 2 hereinbefore described had been incorporated (poisoned bait), while the plain bait continued to be offered at the other feeding point.

[6] = system: Warfarin-resistant rats (Rattus norvegicus); experiment: Field Tests on Rats on three farms; type: in vivo
Experimental: Field Tests on Rats (Rattus norvegicus)
Field tests were carried out on warfarin-resistant rats on three farms. Baits were prepared from either medium oatmeal or soaked wheat in which was incorporated 0.1% by weight of the test compound used in Test 2 hereinbefore described. […] The amount of bait eaten per day was determined by weighing and the presence or absence of rats was deduced from the amount of bait eaten and by counting the traces of the presence of rats in patches of dust laid for this purpose.

mice (Mus musculus) [7] = experiment: Field Test on Mice; type: in vivo
Experimental: Field Test on Mice (Mus musculus)
(1) A non-toxic bait was laid at 3 mouse-infested sites and the amount of bait eaten was determined by weighing. (2) The non-toxic bait was then withdrawn and replaced by a similar bait in which was incorporated 0.1% by weight of the test compound used in Test 2 hereinbefore described (poisoned bait). The amount of poisoned bait which was eaten was similarly determined by weighing over a period of three weeks. (3) The poisoned bait was then withdrawn and replaced by the non-toxic bait and the amount of non-toxic bait which was eaten was also similarly determined by weighing. The results obtained are given in following Table 6, the degree of control being calculated by a comparison of the amounts of non-toxic bait which were eaten during the periods before and after use of the poisoned bait.

SMILES: CC(C)(C)C1CCN(CC#Cc2cc(C(F)(F)F)cc(C(F)(F)F)c2)CC1.Cl [1-(3,5-bistrifluoromethylphenyl)-3-(4-tert-butylpiperidino)prop-1-yne hydrochloride]
- LD50 (acute oral) (mice (laboratory strain)): 23 mg/kg animal body weight
- Observations: signs of poisoning (mice (laboratory strain)): no marked signs
- Days to Death, Mean ([1]; female rats): 5.8 days
- Mortality ([1]; female rats): 5/5
- Days to Death, Mean ([1]; male rats): 7.2 days
- Mortality ([1]; male rats): 5/5
- Days to Death, Mean ([2]; female mice): 5.8 days
- Mortality ([2]; female mice): 5/5
- Days to Death, Mean ([2]; male mice): 6.2 days
- Mortality ([2]; male mice): 5/5
- Days to Death, Mean (mice (Mus musculus) [3]): 5.5 days
- Mortality (mice (Mus musculus) [3]): 100%
- Quantity of poisoned bait eaten (mice (Mus musculus) [3]; Day 1, 4 male and 4 female mice): 19.1 g
- Quantity of poisoned bait eaten (mice (Mus musculus) [3]; Day 2): 18.8 g
- Quantity of poisoned bait eaten (mice (Mus musculus) [3]; Day 3): 15.4 g
- Quantity of poisoned bait eaten (mice (Mus musculus) [3]; Days 4-7): 13.7 g
- Mortality (mice (Mus musculus) [4]; 15 mice in pen): 93.7%
- Quantity of poisoned bait eaten (mice (Mus musculus) [4]; 15 mice in pen, Days 1 to 7): 43.0 g
- Quantity of poisoned bait eaten (mice (Mus musculus) [4]; 15 mice in pen, Days 8 to 14): 1.2 g
- Quantity of poisoned bait eaten (mice (Mus musculus) [4]; 15 mice in pen, Days 15 to 21): 0.3 g
- Mortality (mice (Mus musculus) [4]; 16 mice in pen (first line)): 93.8%
- Quantity of poisoned bait eaten (mice (Mus musculus) [4]; 16 mice in pen (first line), Days 1 to 7): 55.0 g
- Quantity of poisoned bait eaten (mice (Mus musculus) [4]; 16 mice in pen (first line), Days 8 to 14): 0.5 g
- Quantity of poisoned bait eaten (mice (Mus musculus) [4]; 16 mice in pen (first line), Days 15 to 21): 0.0 g
- Mortality (mice (Mus musculus) [4]; 16 mice in pen (fourth line)): 93.8%
- Quantity of poisoned bait eaten (mice (Mus musculus) [4]; 16 mice in pen (fourth line), Days 1 to 7): 25.7 g
- Quantity of poisoned bait eaten (mice (Mus musculus) [4]; 16 mice in pen (fourth line), Days 8 to 14): 2.0 g
- Quantity of poisoned bait eaten (mice (Mus musculus) [4]; 16 mice in pen (fourth line), Days 15 to 21): 0.3 g
- Mortality (mice (Mus musculus) [4]; 24 mice in pen): 91.7%
- Quantity of poisoned bait eaten (mice (Mus musculus) [4]; 24 mice in pen, Days 1 to 7): 42.3 g
- Quantity of poisoned bait eaten (mice (Mus musculus) [4]; 24 mice in pen, Days 8 to 14): 3.5 g
- Quantity of poisoned bait eaten (mice (Mus musculus) [4]; 24 mice in pen, Days 15 to 21): 0.7 g
- Quantity of bait eaten, Feeding Point A, Poisoned bait ([5]; Day 1, 0.1% by weight in bait): 99.7 g
- Quantity of bait eaten, Feeding Point B, Plain bait ([5]; Day 1 of offering poisoned bait at Point A): 80.1 g
- Quantity of bait eaten, Feeding Point A, Poisoned bait ([5]; Day 2): 95.2 g
- Quantity of bait eaten, Feeding Point B, Plain bait ([5]; Day 2 of offering poisoned bait at Point A): 65.9 g
- Quantity of bait eaten, Feeding Point A, Poisoned bait ([5]; Day 3): 19.8 g
- Quantity of bait eaten, Feeding Point B, Plain bait ([5]; Day 3 of offering poisoned bait at Point A): 67.4 g
- Cumulative mortality ([5]; Day 4): 30%
- Quantity of bait eaten, Feeding Point A, Poisoned bait ([5]; Day 4): 5.1 g
- Quantity of bait eaten, Feeding Point B, Plain bait ([5]; Day 4 of offering poisoned bait at Point A): 38.1 g
- Quantity of bait eaten, Feeding Point A, Poisoned bait ([5]; Day 5): 1.8 g
- Quantity of bait eaten, Feeding Point B, Plain bait ([5]; Day 5 of offering poisoned bait at Point A): 27.7 g
- Cumulative mortality ([5]; Day 6): 60%
- Quantity of bait eaten, Feeding Point B, Plain bait ([5]; Day 6 of offering poisoned bait at Point A): 19.3 g
- Cumulative mortality ([5]; Day 7): 70%
- Quantity of bait eaten, Feeding Point B, Plain bait ([5]; Day 7 of offering poisoned bait at Point A): 4.0 g
- Cumulative mortality ([5]; Day 8): 80%
- Quantity of bait eaten, Feeding Point B, Plain bait ([5]; Day 8 of offering poisoned bait at Point A): 6.5 g
- Cumulative mortality ([5]; Day 9): 90%
- Quantity of bait eaten, Feeding Point A, Poisoned bait ([5]; Day 9): 1.3 g
- Quantity of bait eaten, Feeding Point B, Plain bait ([5]; Day 9 of offering poisoned bait at Point A): 3.7 g
- Quantity of bait eaten, Feeding Point A, Poisoned bait ([5]; Day 11): 0.7 g
- Quantity of bait eaten, Feeding Point B, Plain bait ([5]; Day 11 of offering poisoned bait at Point A): 0.7 g
- Cumulative mortality ([5]; Day 12): 100%
- Total bait eaten ([5]; Day 1): 179.8 g
- Total bait eaten ([5]; Day 2): 161.1 g
- Total bait eaten ([5]; Day 3): 97.2 g
- Total bait eaten ([5]; Day 4): 43.2 g
- Total bait eaten ([5]; Day 5): 29.5 g
- Total bait eaten ([5]; Day 6): 19.3 g
- Total bait eaten ([5]; Day 7): 4.0 g
- Total bait eaten ([5]; Day 8): 6.5 g
- Total bait eaten ([5]; Day 9): 5.0 g
- Total bait eaten ([5]; Day 11): 1.4 g
- Total number of dead rats observed during test ([6]; Farm 1): 44
- Amount of bait eaten ([6]; Farm 1, Day 1, 0.1% by weight in bait): 2060 g
- Amount of bait eaten ([6]; Farm 1, Day 2): 440 g
- Amount of bait eaten ([6]; Farm 1, Day 3): 130 g
- Amount of bait eaten ([6]; Farm 1, Day 4): 60 g
- Amount of bait eaten ([6]; Farm 1, Day 6): 245 g
- Amount of bait eaten ([6]; Farm 1, Day 7): 130 g
- Amount of bait eaten ([6]; Farm 1, Day 8): 85 g
- Amount of bait eaten ([6]; Farm 1, Day 9): 30 g
- Amount of bait eaten ([6]; Farm 1, Day 10): 10 g
- Amount of bait eaten ([6]; Farm 1, Day 11): 40 g
- Amount of bait eaten ([6]; Farm 1, Day 14): 65 g
- Total number of dead rats observed during test ([6]; Farm 2): 8
- Amount of bait eaten ([6]; Farm 2, Day 1, 0.1% by weight in bait): 1455 g
- Amount of bait eaten ([6]; Farm 2, Day 2): 1100 g
- Amount of bait eaten ([6]; Farm 2, Day 3): 730 g
- Amount of bait eaten ([6]; Farm 2, Day 4): 210 g
- Amount of bait eaten ([6]; Farm 2, Day 7): 405 g
- Amount of bait eaten ([6]; Farm 2, Day 8): 135 g
- Amount of bait eaten ([6]; Farm 2, Day 9): 40 g
- Amount of bait eaten ([6]; Farm 2, Day 10): 30 g
- Amount of bait eaten ([6]; Farm 2, Day 11): 10 g
- Amount of bait eaten ([6]; Farm 2, Day 14): 95 g
- Amount of bait eaten ([6]; Farm 2, Day 15): 45 g
- Amount of bait eaten ([6]; Farm 2, Day 16): 0 g
- Total number of dead rats observed during test ([6]; Farm 3): 113
- Amount of bait eaten ([6]; Farm 3, Day 1, 0.1% by weight in bait): 4800 g
- Amount of bait eaten ([6]; Farm 3, Day 2): 2680 g
- Amount of bait eaten ([6]; Farm 3, Day 3): 360 g
- Amount of bait eaten ([6]; Farm 3, Day 4): 445 g
- Amount of bait eaten ([6]; Farm 3, Day 7): 565 g
- Amount of bait eaten ([6]; Farm 3, Day 8): 205 g
- Amount of bait eaten ([6]; Farm 3, Day 9): 185 g
- Amount of bait eaten ([6]; Farm 3, Day 10): 65 g
- Amount of bait eaten ([6]; Farm 3, Day 11): 15 g
- rats initially present on the farms killed (estimated) ([6]; by the fourth day of the tests): about 80%
- percentage kill compared with anticoagulant rodenticides ([6]; by the fourth day, vs usual kill with anticoagulant rodenticides used similarly): significantly higher percentage kill
- Estimated Control (mice (Mus musculus) [7]; Site 1): 98.8%
- Amount of non-toxic bait eaten per week in period following use of poisoned bait (mice (Mus musculus) [7]; Site 1 (912 g per week before)): 11 g
- Amount of poisoned bait eaten (mice (Mus musculus) [7]; Site 1, Week 1, 0.1% by weight in bait): 368 g
- Amount of poisoned bait eaten (mice (Mus musculus) [7]; Site 1, Week 2): 1 g
- Estimated Control (mice (Mus musculus) [7]; Site 2): 98.9%
- Amount of non-toxic bait eaten per week in period following use of poisoned bait (mice (Mus musculus) [7]; Site 2 (897 g per week before)): 10 g
- Amount of poisoned bait eaten (mice (Mus musculus) [7]; Site 2, Week 1, 0.1% by weight in bait): 441 g
- Amount of poisoned bait eaten (mice (Mus musculus) [7]; Site 2, Week 2): 0 g
- Estimated Control (mice (Mus musculus) [7]; Site 3): 100%
- Amount of non-toxic bait eaten per week in period following use of poisoned bait (mice (Mus musculus) [7]; Site 3 (1880 g per week before)): 0 g
- Amount of poisoned bait eaten (mice (Mus musculus) [7]; Site 3, Week 1, 0.1% by weight in bait): 929 g
- Amount of poisoned bait eaten (mice (Mus musculus) [7]; Site 3, Week 2): 115 g
- Amount of poisoned bait eaten (mice (Mus musculus) [7]; Site 3, Week 3): 11 g

SMILES: CC(C)(C)C1CCN(CC#Cc2cc(C(F)(F)F)cc(C(F)(F)F)c2)CC1 [Compound of formula I as free base, 1-(3,5-bistrifluoromethylphenyl)-3-(4-tert-butylpiperidino)prop-1-yne]
- LD50 (acute oral) (mice (laboratory strain)): 68 mg/kg animal body weight
- Observations: signs of poisoning (mice (laboratory strain)): Some signs of poisoning
- major symptom of toxicity (rodents; in vivo): sedation is the major symptom of toxicity
- manner of death of treated animals (rodents; in vivo): die quietly, without exhibiting signs of distress
- period of delay between ingestion and death compared with anticoagulant rodenticides (rodents; vs anticoagulant rodenticides): shorter
- toxicity to strains of rodents resistant to anticoagulant rodenticides (rodents; vs strains which do not possess this resistance): equally as toxic
